Data from patent publication US7989642B2, “Process for producing powdered compositions containing highly unsaturated fatty acid esters of ascorbic acid and powdered compositions containing the esters” (Suntory Holdings Limited, priority 2003, dated 2011).

Assay: Test for the stability against oxidation of arachidonic acid moiety (storage at 37° C., humidity 12%, gas chromatography of non-oxidized arachidonic acid)
Format: physicochemical
Settings: stored at 37° C.
Procedure: The resulting microcapsulated powder of 6-O-arachidonoyl-ascorbate was left in the air at 37° C. and a humidity of 12% for 30 days to determine the stability of the powder against oxidation (See, Example 4 below). During the 30-day period, samples were taken at predetermined intervals and were hydrolyzed into methyl arachidonate, which in turn was subjected to gas chromatography to determine the amount of non-oxidized arachidonic acid. As shown, the stability of any polysaccharides used was improved by powdering. The increase in the stability against oxidation was particularly significant in gum Arabic and soybean polysaccharide.
240 mg of each powder product (microcapsule) obtained in each example was placed in a flat bottom glass container (1.5 cm inner diameter, 3 cm high). Using an aqueous solution of lithium chloride, the humidity inside the container was maintained at 12% and the powder was stored at 37° C. The cup was taken out at predetermined intervals and the 6-O-arachidonoyl-ascorbate encapsulated in the microcapsules was hydrolyzed, followed by esterification with methyl groups. The amount of non-oxidized arachidonic acid was determined by gas chromatography (GC-14B, manufactured by SHIMADZU CORP.). The samples were analyzed using methyl myristate as an internal standard. […]

Row | proportion of the arachidonic acid left unoxidized (after 30 days, relative to Day 0) [%] | disappearance of non-oxidized arachidonic acid | Compound
1 | 30 | – | 6-O-arachidonoyl-ascorbate
2 | – | disappeared in a few hours | CCCCC/C=C\C/C=C\C/C=C\C/C=C\CCCC(=O)O [non-capsulated arachidonic acid, arachidonic acid]
